Reference: patent publication US12285435B2, “Multivesicular liposome formulations of dexamethasone” (Pacira Pharmaceuticals, Inc., priority 2021, dated 2025)

What was measured:
[1] = DSP, rapid absorption into the blood stream; cited from earlier work
[2] = Pharmacokinetic study of subcutaneous DSP-MVL formulations vs bolus DSP in rats (dexamethasone plasma levels); type: in vivo; conditions: rat
Method: Pharmacokinetic (PK) studies of the subcutaneous dosing of DSP discussed herein were performed on rats where bolus DSP was compared to various formulations of DSP-MVLs at doses between 1.0 to 3.5 mg/kg for rats and at 0.5 mg/kg for beagles. Formulations 3AA, 5AA, 8AA, 11AA, 14AA, 4B, and 1C were diluted to 19-20% PPV from the initial PPV of about 30-45% with a final DSP concentration of approximately about 3 mg/mL to 3.5 mg/mL. Formulations 47-49 were not diluted, and the DSP concentration in the final product was approximately 7 mg/mL. In addition, PK studies of Formulation 18AA were performed on beagles through subcutaneous and epidural dosing of DSP of about 0.5 mg/kg.
Plasma samples were collected at different times points (0, 24, 48, 72, 96, 120, 144 and 168 hours post dose) for analysis. Blood samples were collected via the right saphenous vein using a 19-gauge needle prick or cardiac puncture for the final time point, placed into chilled tubes containing the appropriate anticoagulant, inverted several times to mix, protected from light, and kept on ice until centrifugation. A summary of the data in FIG. 1-6 is set forth below in Tables 1-2. For the rat studies, Cumulative % AUC is expressed as a percentage of the total AUC obtained in animals administered with Free DSP. For the dog studies, Cumulative % AUC is expressed as a percentage of the total AUC for each dog.
FIG. 1 is a line chart illustrating the dose normalized dexamethasone plasma levels obtained in rats as a function of time, following administration of several DSP-MVL formulations varying in internal pH (Formulations 47-49) as compared to DSP in a saline solution (“Free DSP Solution” Formulation).
FIG. 4 is a line chart illustrating the dose normalized dexamethasone plasma level obtained in rats as a function of time, following administration of two DSP-MVL formulations with and without triolein (Formulations 5AA and 3AA).
FIG. 5 is a line chart illustrating the dose normalized dexamethasone plasma levels obtained in rats as a function of time, following administration of several DSP-MVL formulations varying in lipid component concentrations (Formulations 4B and 1C).

[3] = percentage of the total AUC obtained in animals administered with Free DSP

In the case of “dexamethasone sodium phosphate [Free DSP]”, the plasma half-life [1] is listed as roughly 3.33 h, the Tmax [2] is listed as 1 h and the AUC/dose ([2]; dose normalized) is listed as 1182 ng·h/mL/mg/kg. For the same substance, the “Cumulative AUC % at 7 days” value [2, 3] was 100% and the “Cumulative AUC % at 14 days” value [2, 3] was 100%.
